Several values for one entry are separate records, joined by “and”; a condition that tells them apart may be missing. Equal values may be shown once. Read-outs that look alike come from different tables or passages of the source. Marks after values point to notes of the source that are not given here.
How the values were obtained:
BT474 = test: Cell survival assay (SRB), BT474; type: cell-based; details: Homo sapiens, BT-474, 72 h
Procedure: (§1) 2.2. Cell Survival Assay: Standard Pharmacological Test Procedure. […] Compounds are incubated with cells for 3 days.

DLD-1 = test: Cell survival assay (SRB), DLD-1; type: cell-based; details: Homo sapiens, DLD-1, 72 h, 3 days
Excerpt: (§2) Cells lines with previously known mechanisms of resistance. […] Res. 8: 207-218,1996); KB-3-1 (parental derived from an epidermoid carcinoma), KB-8.5, KB-V1 (Akiyama S-I, Fojo A, Hanover J A, Pastan I, Gottesman M M. Isolation and genetic characterization of human KB cell lines resistant to multiple drugs. Somatic Cell Mol. Gen., 11: 117-126,1985; Shen D-W, Cardarelli C, Hwang J, Cornwell M, Richert N, Ishii S, Pastan I, Gottesman MM. […] J. Biol. Chem., 261: 7762-7770, 1986); and HL-60 (parental derived from human leukemia) and HL60/AR (McGrath T., Center M. S. Adriamycin resistance in HL60 cells in the absence of detectable P-glycoprotein. Biochem. Res. Commun., 145:1171-1176,1987); A549 and A549.EpoB40 (He L., Yang C.-P.H., Horwitz S. B. Mutations in p-tubulin map to domains involved in regulation of microtubule stability in epothilone-resistant cell lines. Molecular Cancer Therapeutics. 1: 3-10, 2001). HCT-15 human colon carcinoma and DLD-1 human colon carcinoma are obtained from American Tissue Culture Collection. The MX-1W carcinoma is a Wyeth variant orginally obtained as MX-1 breast carcinoma from the National Cancer Institute. Cell lines selected for resistance to Representative Example 129. KB-3-1 cells are selected for resistance to Example 129 by chronically exposing cells to increasing concentrations of Example 129.
(§3) 2.2. Cell Survival Assay: Standard Pharmacological Test Procedure. The concentration of candidate inhibitor required to inhibit 50% of cell growth (IC50) is done according to previously reported methods. […] Compounds are serially diluted into media as 2× stocks and 100 μl added to cells in duplicate. Compounds are incubated with cells for 3 days. At the end of the incubation period the sulforhodamine B (SRB) assay, which measures protein content as an assessment of cell survival, is performed as described previously (Skehan P, Storeng R, Scudiero D, Monks A, McMahon J, Vistica D, Warren J T, Bokesch H, Kenney S, Boyd MR. New calorimetric cytotoxicity assay for anticancer-drug screening. J Natl Cancer Inst 1990 Jul 4;82(13):1107-12) with some modification as follows. For KB-3-1 cells with 20% FCS, media is gently decanted and replaced with 200 μl of serum-free media mixed with cold 50% TCA for a final concentration of 10% TCA. The plates are incubated for 1 hr at 4° C., followed by washing 5 times in cold distilled water, then air dried overnight. The fixed cells are stained for 10 min with 80 μl of 0.04% SRB solution prepared in 1% glacial acetic acid. Stain is discarded and plates washed 5 times in 1% glacial acetic acid, then air-dried until completely dry. Stained cell product is dissolved in 150 μl of 10 mM Trizma Base and placed on a shaker for 20 minutes until fully dissolved. Absorbance is read on a Victor V multi-label plate reader (Perkin Elmer, Gaithersburg, Md.).

HCT-15 = test: Cell survival assay (SRB), HCT-15; type: cell-based; details: Homo sapiens, HCT-15, 72 h, 3 days
Excerpt: as §2, §3

HT-29 = test: Cell survival assay (SRB), HT-29; type: cell-based; details: Homo sapiens
Procedure: as §1

S1 = test: Cell survival assay (SRB), S1; type: cell-based; details: Homo sapiens
Excerpt: as §2, §3

U87 = test: Cell survival assay (SRB), U87; type: cell-based; details: Homo sapiens, U-87 MG, 72 h
Procedure: as §1

Lox = test: Cell survival assay (SRB), Lox; type: cell-based; details: Homo sapiens, 72 h
Procedure: as §1

SK-Mel-2 = test: Cell survival assay (SRB), SK-Mel-2; type: cell-based; details: Homo sapiens
Procedure: as §1

Capan-1 = test: Cell survival assay (SRB), Capan-1; type: cell-based; details: Homo sapiens
Procedure: as §1

PC3MM2 = test: Cell survival assay (SRB), PC3MM2; type: cell-based; details: Homo sapiens
Procedure: as §1

A498 = test: Cell survival assay (SRB), A498; type: cell-based; details: Homo sapiens
Procedure: as §1

KB-PTX-15+099 = test: Cell survival assay, KB-PTX-15+099 (paclitaxel-resistant, non-MDR); type: cell-based, human; details: for IC50: Homo sapiens
KB-HTI-4.0 = test: Cell survival assay, KB-3-1 line made resistant to Example 129 (KB-HTI-4.0); type: cell-based, human; details: for IC50: Homo sapiens
DLD-1 tumor = test: Growth of tumors in nude mice, DLD-1 xenograft; type: in vivo; details: days 1,5,9
Excerpt: 2.4. Growth of Tumors in Nude Mice.

KB-8-5 (MDR1+) = test: Cell survival assay (SRB), KB-8-5 (MDR1+); details: for IC50: Homo sapiens

CN[C@H](C(=O)N[C@H](C(=O)N(C)[C@H](/C=C(\C)C(=O)O)C(C)C)C(C)(C)C)C(C)(C)c1ccccc1 [Example 129, N,β,β-trimethyl-L-phenylalanyl-N^1-[(1S,2E)-3-carboxy-1-isopropylbut-2-enyl]-N^1,3-dimethyl-L-valinamide]
IC50 (BT474): 2.5 ± 1.6 nM
IC50 (DLD-1; DLD-1, colon, SRB staining): 1.1 ± 0.4 nM
IC50 (DLD-1; DLD-1, SRB, vehicle control (DMSO), no MDR-1 inhibitor): 1.2 nM
IC50 (DLD-1; read-out: IC50 + 5.0 uM MDR-1 inhibitor, DLD-1, SRB, + 5.0 uM MDR-1 inhibitor (heptanenitrile of Table 2)): 1.1 nM
IC50 (HCT-15; HCT-15, colon, SRB staining): 4.2 ± 2.5 nM
IC50 (HCT-15; HCT-15, SRB, vehicle control (DMSO), no MDR-1 inhibitor): 2.2 nM
IC50 (HCT-15; read-out: IC50 + 5.0 uM MDR-1 inhibitor, HCT-15, SRB, + 5.0 uM MDR-1 inhibitor (heptanenitrile of Table 2)): 0.5 nM
IC50 (HT-29; HT-29, 72 h): 1.6 nM
IC50 (S1; 72 h): 3.7 ± 2 nM
IC50 (S1; read-out: S1 IC50, nM (N)): 3.7 ± 2 nM
IC50 (U87): 2.4 ± 0.3 nM
IC50 (Lox; LOX): 1.4 ± 0.6 nM
IC50 (SK-Mel-2; SK-MEL-2, 72 h): 1.7 ± 0.5 nM
IC50 (Capan-1; CAPAN-1, 72 h): 1.4 nM
IC50 (PC3MM2; PC3MM2, 72 h): 1.9 ± 0.1 nM
IC50 (A498; A498, 72 h): 0.8 nM
IC50 (KB-PTX-15+099; read-out: KB-PTX-15+099 IC50 (nM)): 0.182 ± 0.028 nM
Average Relative Resistance (RR) (KB-PTX-15+099; IC50 KB-PTX-15+099 / IC50 KB-3-1, less than 1 = increased sensitivity): (0.30)
increased sensitivity of KB-PTX-15+099 cells (KB-PTX-15+099; vs KB-3-1): 3.4 fold
(RR) relative resistance vs. parental cells (KB-HTI-4.0): (12)
resistance of KB-3-1-derived cell lines selected with Example 129 (KB-HTI-4.0): approximately 12 fold
IC50 (KB-HTI-4.0; KB 3-1, read-out: KB-HTI-4.0 IC50, nM): 6.5 ± 1.6 nM
% T/C on day 7 (DLD-1 tumor; Example 129 1.6 mg/kg IV): 22** %
% T/C on day 14 (DLD-1 tumor; Example 129 1.6 mg/kg IV): 20** %
% T/C on day 21 (DLD-1 tumor; Example 129 1.6 mg/kg IV): 44%
RR, relative resistance (KB-8-5 (MDR1+)): 2.4
Ratio KB85/KB (KB-8-5 (MDR1+)): 2.4
resistance of KB-8-5 cells (KB-8-5 (MDR1+)): 2.4-5 fold
IC50 (KB-8-5 (MDR1+); MDR1, 72 h): 1.9 nM
IC50 (KB-8-5 (MDR1+); MDR1, 72 h, read-out: IC50 + 5.0 uM MDR-1 inhibitor): 1.4 nM
IC50 (KB-8-5 (MDR1+); MDR1, read-out: KB-8-5 (MDR1+) IC50, nM (N)): 2.3 nM

CC(=O)O[C@H]1C(=O)[C@@]2(C)[C@H]([C@H](OC(=O)c3ccccc3)[C@]3(O)C[C@H](OC(=O)[C@H](O)[C@@H](NC(=O)c4ccccc4)c4ccccc4)C(C)=C1C3(C)C)[C@]1(OC(C)=O)CO[C@@H]1C[C@@H]2O [paclitaxel, reference compound]
IC50 (BT474; BT474, breast, 3 days, SRB staining, read-out: IC50): 10 nM
IC50 (DLD-1; DLD-1, colon, SRB staining, read-out: IC50): 30.8 ± 12.7 nM
IC50 (DLD-1; DLD-1, SRB, + 5.0 uM MDR-1 inhibitor (heptanenitrile of Table 2), read-out: IC50 + 5.0 uM MDR-1 inhibitor): 3.8 nM
IC50 (DLD-1; DLD-1, SRB, vehicle control (DMSO), no MDR-1 inhibitor, read-out: IC50): 21.8 nM
IC50 (HCT-15; HCT-15, colon, SRB staining, read-out: IC50): 438 ± 248 nM
IC50 (HCT-15; HCT-15, SRB, + 5.0 uM MDR-1 inhibitor (heptanenitrile of Table 2), read-out: IC50 + 5.0 uM MDR-1 inhibitor): 5 nM
IC50 (HCT-15; HCT-15, SRB, vehicle control (DMSO), no MDR-1 inhibitor, read-out: IC50): 479 nM
IC50 (HT-29; 72 h, HT-29, colon, 3 days, SRB staining, read-out: IC50): 6.1 nM
IC50 (S1; 72 h, S1, colon, 3 days, SRB staining, read-out: IC50): 92 ± 100 nM
IC50 (S1; S1 parental, Table 5, read-out: S1 IC50, nM (N)): 92 ± 100 nM
IC50 (U87; U87, glioblastoma, 3 days, SRB staining, read-out: IC50): 25.1 nM
IC50 (Lox; Lox, melanoma, 3 days, SRB staining, read-out: IC50): 17.3 ± 5.6 nM
IC50 (SK-Mel-2; 72 h, SK-Mel-2, melanoma, 3 days, SRB staining, read-out: IC50): 3.2 ± 1.8 nM
IC50 (Capan-1; 72 h, Capan-1, pancreatic, 3 days, SRB staining, read-out: IC50): 4 nM
IC50 (PC3MM2; 72 h, PC3MM2, prostate, 3 days, SRB staining, read-out: IC50): 8.7 nM
IC50 (A498; 72 h, A498, renal, 3 days, SRB staining, read-out: IC50): 27.5 nM
IC50 (KB-PTX-15+099; KB-PTX-15+099, Table 6, read-out: KB-PTX-15+099 IC50): 57.8 ± 9.6 nM
resistance of KB-PTX-15+099 cells (KB-PTX-15+099; vs KB-3-1): 21 fold
IC50 (KB-HTI-4.0; KB-3-1 line made resistant to Example 129, Table 8, read-out: KB-HTI-4.0 IC50): 3.18 ± 0.62 nM
% T/C on day 7 (DLD-1 tumor; paclitaxel 60 mg/kg IV): 71%
% T/C on day 14 (DLD-1 tumor; paclitaxel 60 mg/kg IV): 73%
IC50 (KB-8-5 (MDR1+); MDR1, 72 h, KB-85, 3 days, SRB, vehicle (DMSO), no MDR-1 inhibitor, mean of two experiments): 41.9 nM
IC50 (KB-8-5 (MDR1+); MDR1, 72 h, read-out: IC50 + 5.0 uM MDR-1 inhibitor, KB-85, 3 days, SRB, + 5.0 uM MDR-1 inhibitor (heptanenitrile), mean of two experiments): 4.4 nM
IC50 (KB-8-5 (MDR1+); MDR1, read-out: KB-8-5 (MDR1+) IC50, nM (N), KB-8-5, moderate MDR1 expression, Table 3): 63.3 ± 29 nM
resistance of KB-8-5 cells (KB-8-5 (MDR1+); KB-8-5 (KB-85) vs KB-3-1, in vitro): 19 fold and 14 fold

From patent publication US20040121965A1, “Method of treating resistant tumors” (Wyeth Holdings Corporation, priority 2002, published 2004)
